Experimental data: patent US9962369B2, “Methods and compositions for transdermal delivery” (SPRAYABLE HOLDINGS, INC., priority 2014, dated 2018)

experiment: Transdermal delivery of melatonin: plasma level of melatonin after applying composition to skin of a subject; conditions: 0.3 mL of 7% helper ester + 1% melatonin in water on skin of the back (20 cm×20 cm); control 2.0 ml of […] melatonin suspension in water; plasma level at 1, 2, 4, 8 hours

SMILES	transdermal delivery of melatonin compared to control composition (A)
CC(C)OC(=O)[C@@H](N)Cc1ccc(O)cc1 [Tyrosine isopropyl ester]	more efficient and effective transdermal delivery of melatonin
CCCCCOC(=O)[C@@H](N)Cc1ccc(O)cc1 [Tyrosine pentyl ester]	more efficient and effective transdermal delivery of melatonin
CCCOC(=O)[C@@H](N)Cc1ccc(O)cc1 [Tyrosine propyl ester]	more efficient and effective transdermal delivery of melatonin
